Experimental data taken from patent US8211483B2, “Composition comprising starch or dietary fiber from gramineae plant for prevention and treatment of ischemic diseases and degenerative brain disease” (Hypoxi Co., Ltd., priority 2007, dated 2012).

Tests used:
[1] = test system: myocardial infarction-induced rat model; test: Myocardial infarction-induced rat model (LAD ischemia-reperfusion), oral administration; format: in vivo; settings: for size of infarcted area reduced by: 10 mg/kg/day oral, vs control 50.6%, p<0.05, FIG. 5c; for IA (% AAR): 10 mg/kg/day with food from three days before ischemia, control 50.6%, FIG. 5c
Method: The therapeutic efficacy of inventive starch and total dietary fiber on myocardial infarction was measured in myocardial infarction-induced rat model, using experiment rats prepared in Reference Example 1, in accordance with the procedure disclosed in the literature (Haisong J et al., Circulation, 97, pp 892-899, 1998), with minor modification.
SD rats prepared in Reference Example 1 were anesthetized with 10 mg/kg ketamine (Yuhan Corp., KOREA) and 5 mg/kg xylazine (Sigma, USA) and intubated endotracheally. The rats were connected to a respirator through a tracheotomy, and the heart was rapidly exteriorized through a left thoracotomy and pericardial incision. The upper region of left coronary artery (LAD) was ligated by passing a 5-0 prolene thread under LAD and tightening polyethylene tubing 50 (PE 50), resulting in ischemia. After 30 min of ischemia, 3 hours of reperfusion followed, after the tightened PE 50 was loosened. After the ischemia-reperfusion, the PE 50 was tightened again to induce ischemia, and then 2 ml of 1% Evans blue dye solution was infused intravenously to circulate whole body. Then the heart was isolated, cut into the width of 2-3 mm after the right atrium and right ventricle of the heart were removed. Then the stained (LV-AAR) and unstained area (AAR) of cross sectioned tissue was measured by using image analysis system (Quantity One 4.2, Bio-Rad, USA) to calculate the area at risk (AAR/LV, %). Then, the tissue was stained with 1% TTC (2,3,5-triphenyltetrazolium chloride, Sigma, USA) at 37° C. for 15 mins, fixed with 10% formalin solution. The infarcted area (IA/LV, %) was determined by measuring necrotic white area (IA) and total left ventricle area (LV). The ratio of IA to AAR of test samples and control group was compared to test efficacy.
The inventive starch, total dietary fiber, and representative components of the fiber mixed with food were administered orally, and the size of infarcted area was measured. To determine the proper dose with safety and maximum efficacy at the same time, the minimum dose calculated from the result obtained in Experimental Example 1 was set as a starting point, and the dose was increased according to two-fold increasing method, i.e., 100, 200 and 400 mg/kg.
Three days before the induction of ischemia, 400 mg/kg/day of HY6228 or inventive starch, or 10 mg/kg/day of inventive total dietary fiber, or 10 mg/kg/day of its components, such as arabinoxylan, beta-glucan, arabinose and xylose, was fed with 20 g of food with free access. After induction of myocardial infarction with 3 hours of reperfusion, the infarcted area was measured, the value of IA (% AAR) was calculated, and then efficacy of the inventive starch and total dietary fiber was compared with each other.

SH-SY5Y cells = test: MTT assay, beta-amyloid-induced cytotoxicity in SH-SY5Y cells; format: cell-based, human; settings: 15 microM beta-amyloid (alone 60.4%), p<0.05, FIG. 3e; for viability at 250 µg/mL: Homo sapiens, 250 microgram/ml, read-out: cell viability
Method: To identify the neuroprotective effect of inventive crude extract, starch and total dietary fiber on the cytotoxicity induced by beta-amyloid, which is regarded as one of the main causes of Alzheimer's disease, the following MTT assay was performed by the procedure disclosed in the literature (Hoffman R. M., Cell Biology (Celis J E (Ed.), Vol. 1, pp 369-370, Academic Press, New York, 1994) with minor modification.
SH-SY5Y cells (human neuroblastoma cell line, ATCC CRL-2266, 4×10^4 cells/300 microliter/well) were seeded onto 48 well plates and incubated in Dulbecco's modified Eagle Medium/F12 90% medium (Invitrogen, USA) supplemented with penicillin G sodium (100 Units/L, Invitrogen, USA), streptomycin sulfate (100 mg/L, Invitrogen, USA) and 10% (w/v) fetal bovine serum (Invitrogen, USA); incubated at 37° C. in 5% CO2-95% air incubator for 48 hours. After changing the media, the cells were treated with beta-amyloid to the final concentrations of 0, 2.5, 7.5 and 25 microM for 24 hours in the absence (designated as Aβ25-35 alone group hereinafter) or presence with inventive starch isolated from Triticum aestivum L. (final concentration: 125 microgram/ml; designated as A25-35+SW group hereinafter) or soluble starch (final concentration: 125 microgram/ml; designated as A25-35+SS group hereinafter) which were made from 50 microgram/ml stock solutions in DMSO (See FIGS. 3a & 3b). After incubation, cells were treated with MTT solution (final concentration of 1 mg/ml) for 2 hours. The dark blue formazan in viable cells was dissolved in DMSO and absorbance at 540 nm was measured by a microplate reader (FLUOstar OPTIMA, BMG LABTECH, GERMANY).
Based on the above-mentioned result, to further examine the protective effects of the crude extract of Triticum aestivum L. or starches isolated from Gramnieae plants against the beta-amyloid-induced cytotoxicity, the concentration of beta-amyloid was fixed to 25 microM. The crude extract of Triticum aestivum L. (HY6228, shown as HY in FIG. 3c; 250 microgram/ml) and starches isolated from Gramnieae plants (SS, SC, SR and SW; 125 microgram/ml) were added thereto to incubation (See FIG. 3c). We also have examined the cell viability improving effect of total dietary fiber (TDF; 500, 1000 microgram/ml) in the presence of 10 microM of beta-amyloid (See FIG. 3d).
In addition, arabinoxylan (AX; 500 microgram/ml), arabinose (Ara; 250 microgram/ml), xylose (Xyl; 250 microgram/ml) and beta-glucan (b-glu; 20 microgram/ml) were added to the media in the presence of 15 microM beta-amyloid (See FIG. 3e).

[2] = test system: vascular dementia-induced rat model; test: Vascular dementia-induced rat model (BCCAO), water-maze test; format: in vivo; settings: 50 mg/kg fed for 1 week, FIG. 8b, 8c
Method: The therapeutic efficacy of inventive starch and total dietary fiber of the present invention on vascular dementia was measured in vascular dementia-induced rat model, using experiment rats prepared in Reference Example 1, in accordance with the procedure disclosed in the literature (Cho K O et al., J. Neurosci. Res., 83, pp 285-291, 2006), with minor modification.
The SD rats prepared in Reference Example 1 were anesthetized by inhalation using enflurane (Choongwae Pharm. Corp., KOREA). Two common carotid arteries were exposed by surgery and tied with thread using BCCAO (bilateral common carotid artery occlusion) method to reduce the blood flow rate into brain for 4 weeks. And then water-maze test disclosed in Experimental Example 6 was performed for 5 days.
7 days after the two common carotid arteries were tied, the rats were started to be fed with HY6228 (200 mg/kg), inventive starch (SW; 200 mg/kg), TDF (50 mg/kg) and arabinoxlyan (50 mg/kg) therewith for 1 week, for which the mean escape latency was measured.

| Molecule | size of infarcted area reduced by [1] [%] | IA (% AAR) [1] [%] | viability at 250 µg/mL (SH-SY5Y cells) [%] | mean escape latency [2] | cell viability (SH-SY5Y cells; 500 microgram/ml) [%] | cell viability (SH-SY5Y cells; 20 microgram/ml) [%] |
| --- | --- | --- | --- | --- | --- | --- |
| O=C[C@@H](O)[C@H](O)[C@H](O)CO [arabinose] | 14.2 | 43.4 | 71.1 |  |  |  |
| O=C[C@H](O)[C@@H](O)[C@H](O)CO [xylose] | 16.8 | 42.1 | 72.1 |  |  |  |
| arabinoxylan | 16.4 | 42.3 |  | reduced the mean escape latency | 75.5 |  |
| beta-glucan | 13.4 | 43.8 |  |  |  | 70 |
